{
  "source": "paper PMC9706920",
  "about": "“Aryloxypropanolamine targets amyloid aggregates and reverses Alzheimer-like phenotypes in Alzheimer mouse models” (Alzheimer's Research & Therapy, 2022)",
  "key": {"Aβ(pE3-42) aggregates": {"target": "T1, Aβ(pE3-42) aggregates (Homo sapiens, UniProt P05067)", "T1 construct": "Aβ(pE3-42), p[…]; made in house; host or cells: chemical synthesis (Fmoc solid phase peptide synthesis)", "T1 sequence (P05067 674-713)": "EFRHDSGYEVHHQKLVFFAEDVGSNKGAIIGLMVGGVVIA", "assay": "ThT fluorescence Aβ(pE3-42) disaggregation assay", "format": "biochemical", "settings": "Fig. 4D", "experimental": "ThT fluorescence was used to assess the in vitro inhibition of Aβ(1–42) and disaggregation of Aβ(1–42), Aβ(1–40), Aβ(pE3-42), recombinant tau K18, and tau repeats R1, R2, R3, R4 by YIAD compounds. In house synthetic Aβ(1–42) was dissolved in DMSO (1 mM, 100% DMSO) and diluted to 20-fold in deionized water to make 50 μM Aβ(1–42) stocks (5% DMSO). YIAD compounds were first dissolved in DMSO (100 mM, 100% DMSO) and serially diluted with deionized water to make YIAD stocks with concentrations of 1, 10, 100, and 1000 μM (10% DMSO). For the Aβ(1–42) inhibition assay, monomeric Aβ(1–42) stocks and YIAD stocks were co-incubated at 37°C for 3 days. For Aβ(1–42) disaggregation assay, monomeric Aβ(1–42) stocks were preincubated at 37°C for three days to form Aβ(1–42) aggregates, and subsequently, YIAD stocks were added for an additional 3 days. For Aβ(1-40) disaggregation assays, Aβ(1–40) (50 μM, 5% DMSO) was preincubated at 37°C for 3 days to induce aggregation, and co-incubated with YIAD001 and YIAD002 for an additional 3 days. […] Prior to fluorescence intensity measurement, ThT solution (5 μM) was prepared by dissolving ThT, purchased from Sigma-Aldrich (MO, USA) in 50 mM glycine buffer (pH 8.5). To quantify the effect of inhibition and disaggregation, 25 μL of all samples and 75 μL of ThT solution were loaded into a half-area 96-well black plate in triplicate."}, "BBB-PAMPA": {"assay": "BBB-PAMPA", "format": "in vitro ADME", "settings": "50 μM", "experimental": "Commercially available Double-Sink PAMPA (Pion® Double sink) assay was performed using a two compartment 96-well microtiter plate and protocols specified by the manufacturer. […] Stock solutions of controls and YIAD002 were dissolved in DMSO (10 mM) and subsequently diluted to 200-fold in pION buffer (pH 7.4) to 50 μM. The donor plate of the PAMPA sandwich was loaded with 50 μM solutions, and after wetting the artificial membrane with BBB lipid solution, the acceptor plate was loaded with acceptor sink buffer. Then, the acceptor plate was placed on the donor plate and incubated at 25°C for 4 h. Compound concentration in the reference, donor, and acceptor plates were measured on a UV plate."}, "CYP 2C19": {"target": "T2, CYP 2C19 (Homo sapiens, UniProt P33261)", "T2 construct": "contained human liver microsomes (0.25 mg/ml); from tissue; host or cells: human liver microsomes", "T2 sequence (P33261 whole entry)": "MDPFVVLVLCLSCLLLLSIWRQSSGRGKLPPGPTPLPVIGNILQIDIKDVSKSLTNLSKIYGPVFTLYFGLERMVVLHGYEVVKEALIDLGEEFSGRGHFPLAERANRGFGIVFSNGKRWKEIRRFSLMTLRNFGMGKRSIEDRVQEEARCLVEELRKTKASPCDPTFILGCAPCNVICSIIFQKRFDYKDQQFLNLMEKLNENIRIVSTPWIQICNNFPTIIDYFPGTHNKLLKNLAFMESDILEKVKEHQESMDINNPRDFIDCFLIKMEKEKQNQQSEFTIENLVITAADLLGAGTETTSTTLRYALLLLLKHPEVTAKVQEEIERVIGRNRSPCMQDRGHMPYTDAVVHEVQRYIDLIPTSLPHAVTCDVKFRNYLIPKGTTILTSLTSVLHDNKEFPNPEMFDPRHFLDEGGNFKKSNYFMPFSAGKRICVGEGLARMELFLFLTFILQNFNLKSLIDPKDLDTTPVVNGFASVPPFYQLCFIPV", "assay": "CYP450 inhibition assay, 2C19", "format": "in vitro ADME", "settings": "YIAD002 10 μM, human liver microsomes; weak or no inhibition; read-out: CYP 2C19 inhibition, IC50 (inhibition criteria)", "experimental": "Incubation mixtures for Cytochrome P450s (CYPs) inhibition assay contained human liver microsomes (0.25 mg/ml), 0.1 M phosphate buffer (pH 7.4), 10 μM of YIAD002, and an enzyme substrate cocktail (phenacetin 50 μM, diclofenac 10 μM, S-mephenytoin 100 μM, dextromethorphan 5 μM, and midazolam 2.5 μM). The mixture was pre-incubated at 37°C for 5 min and 1 mM NAPDH was added to initiate reactions. After 15 min of incubation, acetonitrile with terfenadine was added to stop reactions and microsomal solutions were centrifuged at 14,000 rpm at 4°C for 5 min. For LC-MS/MS analysis, supernatants were injected on a Kinetex C18 column (2.1 × 100 mm, 2.6 μm particle size, Phenomenex, USA). The composition of the mobile phase was 0.1% formic acid in water (A) and 0.1% formic acid in acetonitrile (B)."}, "[1]": {"assay": "Microsomal stability, human", "format": "in vitro ADME", "settings": "1 μM, 30 min, 37°C", "experimental": "To evaluate the rate of drug metabolism, we tested YIAD002 stability in liver microsomes of human, rat, and mouse. Microsomal concentration was 0.5 mg/ml in 0.1 M phosphate buffer (pH 7.4). 1 μM of YIAD002 was added to microsome solutions and was prewarmed at 37°C for 5 min. NADPH-regenerating solution was added to microsomes and incubated at 37°C for 30 min. At the end of incubation, acetonitrile with chlorpropamide was added to stop reactions and microsomal solutions were centrifuged at 14,000 rpm at 4°C for 5 min. For LC-MS/MS analysis, supernatants were injected on a Kinetex C18 column (2.1 × 100 mm, 2.6 μm particle size, Phenomenex, USA). The composition of the mobile phase was 0.1% formic acid in water (A) and 0.1% formic acid in acetonitrile (B)."}, "Plasma stability, human": {"assay": "Plasma stability, human", "format": "in vitro ADME", "settings": "10 μM, 37°C, vs 0 min", "experimental": "To assess the plasma stability of YIAD002, YIAD002 stock was dissolved at a concentration of […] in DMSO. 5 μL of YIAD002 stock was added to 195 μL of human plasma or 195 μL of rat plasma and incubated at 37°C for the following time points: 0, 30, and 120 min. At the end of incubation, acetonitrile with chlorpropamide was added to stop reactions. The solutions were centrifuged at 14,000 rpm at 4°C for 5 min and the supernatant was analyzed with LC-MS/MS. High performance liquid chromatography was carried out on a Kinetex C18 column (2.1 × 100 mm, 2.6 μm particle size, Phenomenex, USA). The composition of the mobile phase was 0.1% formic acid in water (A) and 0.1% formic acid in acetonitrile (B)."}},
  "note": "pIC50: −log10 of the molar value.",
  "data": [
    {"smiles": "CCC(C)(C)c1ccc(OCC(O)CN2CCCC2)c(C(C)(C)CC)c1.Cl", "note": "(stereo not shown) [YIAD002, 1-(3-(2,4-Di-tert-pentylphenoxy)-2-hydroxypropyl)pyrrolidin-1-ium chloride]", "values": [
      {"measurement": "Dissociative activity against Aβ(pE3-42) aggregates", "setting": "Aβ(pE3-42) aggregates", "result": "dissociative activity"},
      {"measurement": "BBB permeability class", "setting": "BBB-PAMPA; classification ranges ref 25", "result": "high BBB permeability"},
      {"measurement": "Papp at 4 h, 50 μM", "setting": "BBB-PAMPA; PAMPA, pH 7.4, 25°C, 4 h, read-out: Effective permeability coefficient Pe", "result": 36.8, "unit": "×10⁻⁶ cm/s"},
      {"measurement": "pIC50", "setting": "CYP 2C19", "result": "< 5.00"},
      {"measurement": "Remaining compound in human microsomes", "setting": "[1]", "result": 55.5, "unit": "%"},
      {"measurement": "Compound remaining in human plasma", "setting": "Plasma stability, human; 30 min", "result": 96.3, "unit": "%"},
      {"measurement": "Compound remaining in human plasma", "setting": "Plasma stability, human; 120 min", "result": 92.6, "unit": "%"}
    ]}
  ]
}
